Data as given in ChEMBL document CHEMBL1255534, “Indoloditerpenes from an algicolous isolate of Aspergillus oryzae” (Bioorg Med Chem Lett, 2010).
Active and inactive are the calls of the source. No cut-off for these calls is given here.

Tests used:
Colletotrichum lagenaria = test: Antifungal activity against Colletotrichum lagenarium at 30 ug/ml by agar diffusion test; assay type: functional, organism-based
Fusarium oxysporum = test: Antifungal activity against Fusarium oxysporum at 30 ug/ml by agar diffusion test; assay type: functional, organism-based
Escherichia coli = test: Antibacterial activity against Escherichia coli at 30 ug/ml by agar diffusion test; assay type: functional
[1] = Toxicity in Artemia salina assessed as lethal rate at 100 ug/mL; assay type: organism-based; conditions: in vivo, read-out: Activity

Compound	Activity (Colletotrichum lagenaria)	Activity (Fusarium oxysporum)	diameter of the inhibition zone (DIZ) (Escherichia coli)	mortality at 100 ug/mL [1]	zone of inhibition at 30 µg/mL (Escherichia coli; read-out: DIZ)
CC(C)=C[C@H]1C[C@]2(C)[C@H](CC[C@@]3(C)[C@H]2CC[C@H]2Cc4c([nH]c5ccccc45)[C@@]23C)O1	inactive	inactive	inactive	74.2%	–
C/C=C1\[C@H]2C=C(C)C[C@]1(N)c1ccc(=O)[nH]c1C2	–	inactive	inactive	–	–
CC(C)=C[C@H]1C[C@]2(C)[C@H](CC[C@@]3(C)[C@H]2CC[C@H]2CC(=O)c4ccccc4NC(=O)[C@@]23C)O1 [ASPORYZIN A]	inactive	inactive	inactive	61.9%	–
CC(C)=C[C@H]1C[C@@]2(C)[C@@H]3CC[C@H]4CC5(O)c6ccccc6N5C(=O)[C@@H]4[C@@]3(C)CC[C@@H]2O1 (stereo partly specified) [ASPORYZIN B]	inactive	inactive	inactive	42.9%	–
CC(C)(O)/C=C/C[C@]1(C)[C@@H](O)CC[C@@]2(C)[C@H]1CC[C@H]1Cc3c([nH]c4ccccc34)[C@@]12C [ASPORYZIN C]	inactive	inactive	–	32.8%	8.3 mm
C=C1[C@H](Cc2c[nH]c3ccccc23)CC[C@H]2[C@](C)(CCC=C(C)C)[C@@H](O)CC[C@]12C [EMENIVEOL]	inactive	inactive	inactive	31.4%	–
CC(C)=CCC[C@]1(C)[C@@H](O)CC[C@@]2(C)[C@H]1CC[C@H]1Cc3c([nH]c4ccccc34)[C@@]12C [EMINDOLE SB]	inactive	inactive	inactive	60.3%	–
